From patent publication US20190142721A1, “COMPOSITION CONTAINING SUBSTANCE FOR REGULATING EXPRESSON OF ABH ANTIGENS” (AMOREPACIFIC CORPORATION, priority 2014, published 2019)

Experiments:
[1] = biological target: T1, 5α-reductase (Homo sapiens, UniProt P31213); assay: Inhibitory effect on 5α-reductase activity: conversion of [14C]testosterone to [14C]dihydrotestosterone in HEK 293-5α R2 cells; assay type: cell-based; conditions: for Conversion rate (%): radioactivity at DHT region/total radioactivity, control group 48; for Conversion rate (%) / Inhibition rate (%): 2 μg/ml, 2 hours, HEK 293-5α R2 cells; for Inhibition rate (%): relative to conversion rate of control group
T1 construct: 3×FLAG; expressed in transfected cells; host or cells: HEK 293
T1 sequence (P31213 1-254): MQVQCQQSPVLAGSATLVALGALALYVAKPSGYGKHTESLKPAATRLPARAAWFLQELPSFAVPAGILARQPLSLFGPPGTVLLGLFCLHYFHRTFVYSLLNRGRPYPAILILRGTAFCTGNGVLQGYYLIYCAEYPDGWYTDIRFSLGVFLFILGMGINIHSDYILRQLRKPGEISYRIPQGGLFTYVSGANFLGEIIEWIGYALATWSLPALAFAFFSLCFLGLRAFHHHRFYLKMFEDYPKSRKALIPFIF
Description: In order to evaluate the inhibitory effect on the activity of 5α-reductase, the conversion rate from [^14C] testosterone to [^14C] dihydrotestosterone in HEK 293-5α R2 cells was measured. HEK 293 cells were transfected with p3×FLAG-CMV-5α R2, and the transfected HEK 293 cells (HEK 293-5α R2 cells) were seeded in a 24-well plate, 2.5×10^5 cells per well (Park et al., 2003, JDS. Vol. 31, pp 191-98). The next day, the used culture medium was replaced with a new culture medium containing an enzyme substrate and an inhibitor. The substrate of the culture medium used was 0.05 μCi [^14C]testosterone (Amersham Pharmacia Biotech, UK). […] At this time, for comparison, the negative control used was the group not containing any of the above test substances, while the positive control used was the group in which finasteride was added to the medium at 2 μg/ml and cultured under the same conditions. Subsequently, the culture medium was collected to extract estosterone with 800 μl of ethylacetate. The supernatant organic solvent phase was isolated and dried. The residue was dissolved in 50 μl of ethylacetate and developed on silica plastic sheet kieselgel 60 F254 using an ethylacetate-hexane (1:1) as a developing solvent. The plastic sheet was dried out in the air and measured in regards to the abundance of isotope using a BAS system. The dry plastic sheet together with an X-ray film was put in a bath cassette. After one week, the amount of isotope of testosterone and dihydrotestosterone remaining on the film was measured.

[2] = system: B antigen (ABH antigen); assay: Effect of increasing the expression of B antigen in HaCaT cell line (western blot); assay type: cell-based; conditions: HaCaT cells, 2 μg/ml, 48 hours; for expression of B type antigen: western blot, FIG. 2; for expression of ABH antigen: data not shown
Description: The effect of various kinds of compounds on the expression of ABH antigen was examined. For this purpose, HaCaT cells (provided by Prof. Dr. N E Fusenig, DKFZ Heidelberg, Germany) were cultured in 10% FBS-DMEM for 24 hours in a 35 mm dish and then cultured in 0% FBS-DMEM for 24 hours to make to a starvation state.
Again, while replacing the medium with 0% FBS-DMEM, various kinds of compounds as test substances were treated with HaCaT cells at a concentration of 2 μg/ml, respectively, and cultured for 48 hours. At this time, for comparison, the control group was treated with DMSO at the same concentration as the sample. […] In case where these three compounds were treated, proteins were extracted from the cells, the cell lysate was loaded in the same amount, and then the expression of type B antigen was examined by western blot. Alpha-tubulin protein was used as a control group.

[3] = system: PGE-2; assay: Decrease in expression of skin inflammatory factor PGE-2 in UVB-exposed keratinocytes (ELISA); assay type: cell-based, human; conditions: 2 μg/ml, 16 hours, keratinocytes after UVB exposure
Description: In order to measure the effect of suppressing the expression of PGE-2 which is a skin inflammatory factor of 1,3-dicaffeoylquinic acid, 1,5-dicaffeoylquinic acid and amentoflavone of the present invention, ELISA (Enzyme Linked ImmunoSorbent Assay) was performed (S E Dunsmore, et al., J Biol Chem, 271: 24576-24582, 1996).
5×10^4 cells of keratinocytes isolated from human epidermal tissue were put in each well of a 24-well plate and immobilized for 24 hours. The culture medium was replaced with a medium not containing FBS and treated with aspirin to remove the activity of prostaglandin biosynthetic enzyme (prostaglandin H2 synthetase, or cyclooxygenase). Two hours after aspirin treatment, each well containing keratinocytes was washed twice with PBS to which 100 μl of PBS was added to each well. The keratinocytes were exposed to […] of ultraviolet radiation under an ultraviolet B (UV B) lamp (Model: F15T8, UV B15W, Sankyo Dennki, Japan). Each well was removed of PBS and supplied with 250 ul of the keratinocyte growth media (Clonetics BioWhittacker, MD, USA).
Here, the substances 1,3-dicaffeoylquinic acid, 1,5-dicaffeoylquinic acid and amentoflavone were treated at a dose of 2 μg/ml, followed by culturing for 16 hours. By taking an appropriate amount of culture supernatant and quantifying PGE-2 biosynthesized for 16 hours, the prostaglandin inhibitory effects of 1,3-dicaffeoylquinic acid, 1,5-dicaffeoylquinic acid and amentoflavone was evaluated. The expression inhibitory effect of PGE-2 was calculated by the following mathematical formula 1, and the results are shown in Table 4 below.
Expression inhibition rate of PGE-2(%)=(A−B)/A*100 [Mathematical Formula 1]
A: Absorbance of well to which test substance was not added
B: Absorbance of the well to which test substance was added

[4] = system: reactive oxygen species (ROS); assay: Inhibition of formation of reactive oxygen species in UVB-exposed keratinocytes (DCF-DA fluorescence); assay type: cell-based, human; conditions: 2 μg/ml; for ROS, ratio to the ROS of the control group, 0 hr: 0 hr after exposure to 30 mJ/cm^2 of UVB, UVB + untreated 100; for ROS, ratio to the ROS of the control group, 2 hrs: 2 hrs after exposure to 30 mJ/cm^2 of UVB, UVB + untreated 325, untreated 244; for ROS, ratio to the ROS of the control group, 3 hrs: 3 hrs after exposure to 30 mJ/cm^2 of UVB, UVB + untreated 381, untreated 287
Description: 5×10^4 cells of Keratinocytes isolated from the human epidermal tissue were put in each well of a 24-well plate and immobilized for 24 hours. After the culture medium was removed, 100 μl of phosphate buffered saline (PBS) solution was added to each well. The keratinocytes were exposed to 30 mJ/cm^2 of ultraviolet radiation under an ultraviolet B (UV B) lamp (Model: F15T8, UV B 15 W, Sankyo Denki Co., Ltd., Japan). Each well was removed of the PBS solution and then supplied with 200 μl1 of the keratinocyte culture medium. The well was treated with 2 μg/ml of 1,3-dicaffeoylquinic acid, 1,5-dicaffeoylquinic acid and amentoflavone as the test substances, respectively. Then, the quantity of the reactive oxygen species (ROS) increased by the UV stimulation was determined at defined time intervals. At this time, for comparison, the quantity of reactive oxygen species was also measured for those not treated with test substance (untreated) and not stimulated with ultraviolet rays and those subjected to ultraviolet stimulation without treatment of the test substance. The quantity of ROS was quantified by referring to Tan's method for measuring the fluorescence of dichlorofluorescin diacetate (DCF-DA) oxidized by ROS (Tan et al., 1998, J. Cell Biol. Vol. 141, pp 1423-1432).

[5] = system: procollagen type(I); assay: Promotion of collagen biosynthesis in fibroblasts (procollagen type(I) ELISA); assay type: cell-based; conditions: 2 μg/ml, 24 hours, untreated group as 100
Description: The collagen biosynthesis promoting effect of 1,3-dicaffeoylquinic acid, 1,5-dicaffeoylquinic acid and amentoflavone used in the present invention was measured in comparison with TGF-β.
First, 1×10^5 cells of fibroblasts were seeded in each well of a 24-well plate and cultured until they grew to about 90%. This was cultured in a serum-free DMEM medium for 24 hours and then treated with 2 μg/ml of 1,3-dicaffeoylquinic acid, 1,5-dicaffeoylquinic acid, amentoflavone and TGF-β, respectively, and cultured for 24 hours in a CO2 incubator. These supernatant fluids were removed and the procollagen type(I) ELISA kit was used to observe whether procollagen was increased or decreased. The results are shown in Table 6, and the collagen synthesis ability was compared with the untreated group as 100.

[6] = system: skin pore size; assay: Effect of reducing skin pores in rhino mice; assay type: in vivo; conditions: 0.5 ml of 1% solution applied to rhino mice for 1 week; control group (solvent) 65
Description: At this time, for comparison, only 0.5 ml of solvent was applied to one group. The substances were treated for 1 week and the back part was biopsied 24 hours after the last treatment. The epidermis was separated, immersed in 0.5% acetic acid, fixed in 10% formalin and cut vertically at […]. After staining with hematoxylin and eosin, the skin pore size was measured using a mechanical eyepiece micrometer.

SMILES | Conversion rate (%) [1] | expression of B type antigen [2] | expression of ABH antigen [2] | Inhibition rate (%) [1] | PGE-2 expression inhibition rate(%) [3] | ROS, ratio to the ROS of the control group, 0 hr [4] | ROS, ratio to the ROS of the control group, 2 hrs [4] | ROS, ratio to the ROS of the control group, 3 hrs [4] | Collagen synthesis ability (%) [5] | Skin Pore size (µm) [6] | inhibition at 2 µg/mL ([1]; HEK2935, read-out: Inhibition rate (%))
CC(C)(C)NC(=O)[C@H]1CC[C@H]2[C@@H]3CC[C@H]4NC(=O)C=C[C@]4(C)[C@H]3CC[C@]12C [Finasteride, finasteride, reference compound] | 27% |  |  |  |  |  |  |  |  |  | 
O=C(/C=C/c1ccc(O)c(O)c1)O[C@@H]1C[C@](OC(=O)/C=C/c2ccc(O)c(O)c2)(C(=O)O)C[C@@H](O)[C@H]1O [1,5-dicaffeoylquinic acid] | 30% | increasing the expression of B type antigen | significantly increase the expression of ABH antigen | 38% | 32.5% | 100 | 280 | 315 | 144.2 ± 11.0% | 54 µm | 
O=c1cc(-c2ccc(O)c(-c3c(O)cc(O)c4c(=O)cc(-c5ccc(O)cc5)oc34)c2)oc2cc(O)cc(O)c12 [amentoflavone] | 32% | increasing the expression of B type antigen | significantly increase the expression of ABH antigen |  | 30.9% | 100 | 288 | 320 | 147.7 ± 15.8% | 50 µm | 33%
O=C(/C=C/c1ccc(O)c(O)c1)OC1CC(OC(=O)/C=C/c2ccc(O)c(O)c2)(C(=O)O)CC(O)C1O (centres unmarked) [1,3-dicaffeoylquinic acid] | 30% | increasing the expression of B type antigen | significantly increase the expression of ABH antigen | 38% | 28.1% | 100 | 277 | 319 | 142.1 ± 13.1% | 53 µm | 
O=C(O[C@@H]1Cc2c(O)cc(O)cc2O[C@@H]1c1cc(O)c(O)c(O)c1)c1cc(O)c(O)c(O)c1 [EGCG, reference compound] |  |  |  |  |  |  |  |  |  | 60 µm | 
